One series deals with T1, HCMV polymerase (Human cytomegalovirus, UniProt P08546).
T1 construct: made in house; host or cells: recombinant baculovirus-infected SF-9 cells
Description: HCMV polymerase scintillation proximity assay. Type of series: biochemical. Here is the method:
The HCMV polymerase assay is performed using a scintillation proximity assay (SPA) as described in several references, such as N. D. Cook, et al., Pharmaceutical Manufacturing International, pages 49-53 (1992); K Takeuchi, Laboratory Practice, September issue (1992); U.S. Pat. No. 4,568,649 (1986); which are incorporated by reference herein. Reactions are performed in 96-well plates. The assay is conducted in 100 μl volume with 5.4 mM HEPES (pH 7.5), 11.7 mM KCl, 4.5 mM MgCl2, 0.36 mg/ml BSA, and 90 nM ^3H-dTTP. Assays are run with and without CHAPS, (3-[(3-Cholamidopropyl)-dimethylammonio]-1-propane-sulfonate) at a final concentration of 2 mM. HCMV polymerase is diluted in enzyme dilution buffer containing 50% glycerol, 250 mM NaCl, 10 mM HEPES (pH 7.5), 100 μg/ml BSA, and 0.01% sodium azide. The HCMV polymerase, which is expressed in recombinant baculovirus-infected SF-9 cells and purified according to literature procedures, is added at 10% (or 10 μl) of the final reaction volume, i.e., 100 μl. Compounds are diluted in 50% DMSO and 10 μl are added to each well. Control wells contain an equivalent concentration of DMSO. Unless noted otherwise, reactions are initiated via the addition of 6 nM biotinylated poly(dA)-oligo(dT) template/primer to reaction mixtures containing the enzyme, substrate, and compounds of interest. Plates are incubated in a 25° C. or 37° C. H2O bath and terminated via the addition of 40 μl/reaction of 0.5 M EDTA (pH 8) per well. Reactions are terminated within the time-frame during which substrate incorporation is linear and varied depending upon the enzyme and conditions used, i.e., 30 min. for HCMV polymerase. Ten (10) μl of streptavidin-SPA beads (20 mg/ml in PBS/10% glycerol) are added following termination of the reaction. Plates are incubated 10 min. at 37° C., then equilibrated to room temperature, and counted on a Packard Topcount. Linear regressions are performed and IC50's are calculated using computer software.
A modified version of the above HCMV polymerase assay is performed as described above, but with the following changes: Compounds are diluted in 100% DMSO until final dilution into assay buffer. In the previous assay, compounds are diluted in 50% DMSO. 4.5 mM Dithiothreitol (DTT) is added to the polymerase buffer.
All results are listed as Polymerase IC50 (μM) values. In Table 1, the term “n.d.” refers to activity data not determined.
(In general: SPA uses beads or plates that emit light when radiolabelled molecules are held near them.)

The next series addresses HSV polymerase (Human herpesvirus 1, UniProt P04293). Kind of series: HSV polymerase assay (Table 1). In kind it is biochemical.
For another series, the target named is VZV polymerase (Varicella-zoster virus, UniProt P09252). Kind of series: VZV polymerase assay (Table 1). In kind it is biochemical.

From patent US20040116464A1, “Aryl-ethanolamine derivatives as antiviral agents” (priority 2002, published 2004) come the findings set out here.

The structures appear in SMILES notation. pIC50: −log10 of the molar value. Where two headings read alike, the source gives them in different places.

T1 sequence (P08546 whole entry): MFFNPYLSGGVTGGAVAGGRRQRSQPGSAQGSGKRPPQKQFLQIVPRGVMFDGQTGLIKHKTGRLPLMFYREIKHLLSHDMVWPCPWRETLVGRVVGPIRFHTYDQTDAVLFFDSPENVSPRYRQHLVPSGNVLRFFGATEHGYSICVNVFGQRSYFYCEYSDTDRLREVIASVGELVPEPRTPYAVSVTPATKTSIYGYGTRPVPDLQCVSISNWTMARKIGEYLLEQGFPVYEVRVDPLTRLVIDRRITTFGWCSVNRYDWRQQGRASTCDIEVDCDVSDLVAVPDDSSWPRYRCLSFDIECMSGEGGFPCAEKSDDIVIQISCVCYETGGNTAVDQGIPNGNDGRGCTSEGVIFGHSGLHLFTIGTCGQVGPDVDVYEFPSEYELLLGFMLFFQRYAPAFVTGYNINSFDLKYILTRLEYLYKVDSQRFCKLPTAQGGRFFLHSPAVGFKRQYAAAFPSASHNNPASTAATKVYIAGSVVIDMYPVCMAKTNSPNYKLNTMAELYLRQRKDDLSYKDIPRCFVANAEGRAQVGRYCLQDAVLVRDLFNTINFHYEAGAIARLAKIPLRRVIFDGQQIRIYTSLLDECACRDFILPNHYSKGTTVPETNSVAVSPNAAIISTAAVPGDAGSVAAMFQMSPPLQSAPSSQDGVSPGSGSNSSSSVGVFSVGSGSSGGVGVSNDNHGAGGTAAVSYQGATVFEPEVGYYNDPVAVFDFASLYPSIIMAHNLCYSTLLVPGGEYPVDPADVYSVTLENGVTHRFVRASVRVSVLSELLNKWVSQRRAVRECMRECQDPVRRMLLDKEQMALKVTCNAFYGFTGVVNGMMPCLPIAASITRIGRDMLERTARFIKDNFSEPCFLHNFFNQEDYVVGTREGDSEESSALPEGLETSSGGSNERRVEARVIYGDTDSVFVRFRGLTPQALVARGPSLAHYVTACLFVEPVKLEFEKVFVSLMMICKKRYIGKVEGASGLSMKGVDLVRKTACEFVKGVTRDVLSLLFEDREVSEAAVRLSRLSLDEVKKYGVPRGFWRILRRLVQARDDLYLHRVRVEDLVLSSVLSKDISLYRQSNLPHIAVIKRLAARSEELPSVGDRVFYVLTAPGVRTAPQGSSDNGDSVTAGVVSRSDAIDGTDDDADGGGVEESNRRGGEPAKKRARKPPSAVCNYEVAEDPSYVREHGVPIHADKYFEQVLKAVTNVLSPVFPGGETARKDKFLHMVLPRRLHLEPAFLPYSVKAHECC
Sequence of HSV polymerase (P04293 whole entry): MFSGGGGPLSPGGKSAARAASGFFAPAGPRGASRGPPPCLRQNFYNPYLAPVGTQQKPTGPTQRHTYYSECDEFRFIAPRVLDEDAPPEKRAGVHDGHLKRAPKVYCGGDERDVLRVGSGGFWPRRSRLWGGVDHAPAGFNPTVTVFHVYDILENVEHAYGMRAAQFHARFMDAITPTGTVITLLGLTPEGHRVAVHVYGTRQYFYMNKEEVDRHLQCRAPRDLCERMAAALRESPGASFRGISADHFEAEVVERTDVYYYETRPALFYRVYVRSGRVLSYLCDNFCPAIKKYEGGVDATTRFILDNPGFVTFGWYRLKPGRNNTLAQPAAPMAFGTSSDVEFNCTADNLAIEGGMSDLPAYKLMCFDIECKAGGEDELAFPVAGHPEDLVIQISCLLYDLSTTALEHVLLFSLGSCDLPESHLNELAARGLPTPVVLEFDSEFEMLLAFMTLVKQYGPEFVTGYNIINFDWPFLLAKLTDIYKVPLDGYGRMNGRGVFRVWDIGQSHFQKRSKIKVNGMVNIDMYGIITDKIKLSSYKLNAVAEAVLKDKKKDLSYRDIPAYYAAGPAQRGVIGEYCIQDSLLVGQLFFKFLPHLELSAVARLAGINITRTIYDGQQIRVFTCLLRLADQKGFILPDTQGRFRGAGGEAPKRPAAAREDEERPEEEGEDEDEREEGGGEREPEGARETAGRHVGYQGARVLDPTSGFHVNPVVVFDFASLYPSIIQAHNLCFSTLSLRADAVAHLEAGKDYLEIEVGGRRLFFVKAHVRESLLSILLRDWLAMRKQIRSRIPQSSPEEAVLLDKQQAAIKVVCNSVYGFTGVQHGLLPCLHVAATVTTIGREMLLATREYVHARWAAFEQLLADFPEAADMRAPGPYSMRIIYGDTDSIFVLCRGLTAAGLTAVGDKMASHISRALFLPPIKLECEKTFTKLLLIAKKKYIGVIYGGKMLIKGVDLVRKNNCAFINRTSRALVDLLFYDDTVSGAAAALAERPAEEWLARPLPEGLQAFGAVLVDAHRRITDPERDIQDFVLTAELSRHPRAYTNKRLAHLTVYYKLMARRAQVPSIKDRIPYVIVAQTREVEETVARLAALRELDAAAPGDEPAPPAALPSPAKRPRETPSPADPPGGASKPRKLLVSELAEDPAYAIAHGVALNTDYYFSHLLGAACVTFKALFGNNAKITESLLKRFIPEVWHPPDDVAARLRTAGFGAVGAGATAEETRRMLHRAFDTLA
Sequence of VZV polymerase (P09252 whole entry): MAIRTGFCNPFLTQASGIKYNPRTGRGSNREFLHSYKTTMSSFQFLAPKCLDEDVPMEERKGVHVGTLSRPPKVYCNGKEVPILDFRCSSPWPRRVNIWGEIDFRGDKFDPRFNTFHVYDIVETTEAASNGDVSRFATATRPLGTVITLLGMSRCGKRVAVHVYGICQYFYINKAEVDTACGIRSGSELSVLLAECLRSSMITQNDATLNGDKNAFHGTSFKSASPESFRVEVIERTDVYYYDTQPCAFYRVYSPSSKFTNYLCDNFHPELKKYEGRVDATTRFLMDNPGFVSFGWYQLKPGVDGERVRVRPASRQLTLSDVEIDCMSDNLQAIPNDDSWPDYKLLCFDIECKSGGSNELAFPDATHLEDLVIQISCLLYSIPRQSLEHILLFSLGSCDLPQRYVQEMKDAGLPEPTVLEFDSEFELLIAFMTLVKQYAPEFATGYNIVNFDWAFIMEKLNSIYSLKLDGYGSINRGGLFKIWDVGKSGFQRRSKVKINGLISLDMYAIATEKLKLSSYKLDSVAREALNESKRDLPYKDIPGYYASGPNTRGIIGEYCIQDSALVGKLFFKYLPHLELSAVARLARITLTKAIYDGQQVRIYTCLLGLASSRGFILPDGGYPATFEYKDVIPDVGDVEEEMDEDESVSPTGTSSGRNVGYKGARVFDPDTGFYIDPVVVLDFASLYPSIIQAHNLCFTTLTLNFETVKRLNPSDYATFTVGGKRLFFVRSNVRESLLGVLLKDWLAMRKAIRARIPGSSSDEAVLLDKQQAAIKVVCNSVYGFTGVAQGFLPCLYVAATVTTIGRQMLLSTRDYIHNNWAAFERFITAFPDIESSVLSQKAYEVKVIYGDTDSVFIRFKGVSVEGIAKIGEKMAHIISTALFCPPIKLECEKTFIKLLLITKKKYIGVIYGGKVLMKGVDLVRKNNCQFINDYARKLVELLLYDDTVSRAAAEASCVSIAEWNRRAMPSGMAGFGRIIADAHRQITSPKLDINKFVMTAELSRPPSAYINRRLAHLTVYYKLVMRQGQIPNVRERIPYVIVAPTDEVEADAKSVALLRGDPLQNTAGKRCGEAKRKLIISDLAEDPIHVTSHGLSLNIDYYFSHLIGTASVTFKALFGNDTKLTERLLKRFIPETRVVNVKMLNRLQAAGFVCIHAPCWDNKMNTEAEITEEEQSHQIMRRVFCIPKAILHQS

The term pIC50 denotes the IC50 on a negative log10 scale, so that one unit is a factor of ten. Regarding `CN(Cc1cc2c(=O)c(C(=O)NCc3ccc(Cl)cc3)cn(C)c2s1)C[C@@H](O)c1ccc(O)cc1` [Example 1, N-(4-Chlorobenzyl)-2-((((2S)-2-hydroxy-2-(4-hydroxyphenyl)ethyl)(methyl)-amino)methyl)-7-methyl-4-oxo-4,7-dihydrothieno[2,3-b]pyridine-5-carboxamide], the pIC50 on HCMV polymerase (read-out: Polymerase IC50 HCMV) was 7.30; against HSV polymerase, 6.70; at VZV polymerase it was 7.10.

Consider `CN(Cc1cc2c(=O)c(C(=O)NCc3ccc(Cl)cc3)cn(CC(O)CO)c2s1)C[C@@H](O)c1ccccc1` (stereo partly drawn) [Example 3, N-(4-Chlorobenzyl)-7-(2,3-dihydroxypropyl)-2-((((2S)-2-hydroxy-2-phenylethyl)-(methyl)amino)methyl)-4-oxo-4,7-dihydrothieno[2,3-b]pyridine-5-carboxamide], for which the negative-log IC50 (pIC50) on HCMV polymerase (read-out: Polymerase IC50 HCMV) is 5.75.

In the case of `COc1cccc([C@H](O)CN(C)Cc2cc3c(=O)c(C(=O)NCc4ccc(Cl)cc4)cn(C)c3s2)c1` (single isomer, unassigned) [Example 6], the pIC50 on HCMV polymerase (read-out: Polymerase IC50 HCMV) was 7.22; against HSV polymerase it was 6.80; against VZV polymerase, 7.05.

As to `CN(Cc1cc2c(=O)c(C(=O)NCc3ccc(Cl)cc3)cn(C)c2s1)C[C@@H](O)c1ccc(N(C)C)cc1` (single isomer, unassigned) [Example 12], the negative-log IC50 (pIC50) on HCMV polymerase (read-out: Polymerase IC50 HCMV) is 6.68; against HSV polymerase, 6.21; against VZV polymerase it was 6.64.

For `CN(Cc1cc2c(=O)c(C(=O)NCc3ccc(Cl)cc3)cn(CCCO)c2s1)C[C@@H](O)c1ccccc1` [Example 4, N-(4-chlorobenzyl)-2-((((2S)-2-hydroxy-2-phenylethyl)(methyl)amino)methyl)-7-(3-hydroxypropyl)-4-oxo-4,7-dihydrothieno[2,3-b]pyridine-5-carboxamide], on HCMV polymerase, the pIC50 is 5.85.

With `CN(Cc1cc2c(=O)c(C(=O)NCc3ccc(Cl)cc3)cn(CCO)c2s1)C[C@@H](O)c1ccccc1` [Example 5, N-(4-Chlorobenzyl)-7-(2-hydroxyethyl)-2-((((2S)-2-hydroxy-2-phenylethyl)-(methyl)amino)methyl)-4-oxo-4,7-dihydrothieno[2,3-b]pyridine-5-carboxamide], the pIC50 at HCMV polymerase (read-out: Polymerase IC50 HCMV) was 5.69.

As for `CN(Cc1cc2c(=O)c(C(=O)NCc3ccc(Cl)cc3)cn(C)c2s1)C[C@@H](O)c1ccc(C#N)cc1` (single isomer, unassigned) [Example 10], at HCMV polymerase (read-out: Polymerase IC50 HCMV), the pIC50 was 6.47.

Usually melting point stands for the temperature of the solid-liquid transition. In turn, `CN(Cc1cc2c(=O)c(C(=O)NCc3ccc(Cl)cc3)cn(C)c2s1)C[C@@H](O)c1ccccc1` [Example 2, N-(4-Chlorobenzyl)-2-((((2S)-2-hydroxy-2-phenylethyl)(methyl)amino)methyl)-7-methyl-4-oxo-4,7-dihydrothieno[2,3-b]pyridine-5-carboxamide] returned a melting point of 162 to 164 °C. Also, the negative logarithm of the IC50 (pIC50) against HCMV polymerase was […]. Also, the pIC50 against HSV polymerase is 6.40. The pIC50 at VZV polymerase is 6.70.

`COCCn1cc(C(=O)NCc2ccc(Cl)cc2)c(=O)c2cc(CN(C)C[C@@H](O)c3ccccc3)sc21` [Example 9, N-(4-Chlorobenzyl)-2-((((2S)-2-hydroxy-2-phenylethyl)(methyl)amino)methyl)-7-(2-methoxyethyl)-4-oxo-4,7-dihydrothieno[2,3-b]pyridine-5-carboxamide] yielded a melting point of 105 to 106 °C. Besides, the pIC50 on HCMV polymerase (read-out: Polymerase IC50 HCMV) was 6.49.

The compound `CN(Cc1cc2c(=O)c(C(=O)NCc3ccc(Cl)cc3)cn(C)c2s1)C[C@@H](O)c1ccc([N+](=O)[O-])cc1` (single isomer, unassigned) [Example 14] came in with a melting point of 181 to 183 °C. The pIC50 at HCMV polymerase (read-out: Polymerase IC50 HCMV) is 6.21. Further, the negative-log IC50 (pIC50) at HSV polymerase was 5.76.

Turning to `CCn1cc(C(=O)NCc2ccc(Cl)cc2)c(=O)c2cc(CN(C)C[C@@H](O)c3ccccc3)sc21` [Example 7, N-(4-Chlorobenzyl)-7-ethyl-2-((((2S)-2-hydroxy-2-phenylethyl)(methyl)amino)methyl)-4-oxo-4,7-dihydrothieno[2,3-b]pyridine-5-carboxamide], the melting point lay within 100 to 102 °C. Besides, on HCMV polymerase (read-out: Polymerase IC50 HCMV), the pIC50 was 6.33.

With `CN(Cc1cc2c(=O)c(C(=O)NCc3ccc(Cl)cc3)cn(C)c2s1)C[C@@H](O)c1ccc(CO)cc1` (single isomer, unassigned) [Example 13], the pIC50 was 6.89 at HCMV polymerase (read-out: Polymerase IC50 HCMV), 6.24 at HSV polymerase and 6.70 against VZV polymerase.

With `CCCn1cc(C(=O)NCc2ccc(Cl)cc2)c(=O)c2cc(CN(C)C[C@@H](O)c3ccccc3)sc21` [Example 8, N-(4-Chlorobenzyl)-2-((((2S)-2-hydroxy-2-phenylethyl)(methyl)amino)methyl)-4-oxo-7-propyl-4,7-dihydrothieno[2,3-b]pyridine-5-carboxamide], the melting point was in the range of 45 to 48 °C. For the same compound, on HCMV polymerase (read-out: Polymerase IC50 HCMV), the pIC50 was 6.21.

As for `CN(Cc1cc2c(=O)c(C(=O)NCc3ccc(Cl)cc3)cn(C)c2s1)C[C@@H](O)c1cccc(C#N)c1` (single isomer, unassigned) [Example 11], the figures for the negative-log IC50 (pIC50) on HCMV polymerase (read-out: Polymerase IC50 HCMV), against HSV polymerase and on VZV polymerase were 7.00, 6.68 and 6.96, respectively.
